Data taken from patent publication US7544703B2, “Cyclic compound having 4-pyridylalkylthio group having substituted or unsubstituted amino group introduced therein” (Santen Pharmaceutical Co., Ltd., priority 2004, dated 2009).
Counter-ions that a name gives are not always drawn.

How the values were obtained:
[1] = tested on: choroidal neovascularization models in rats; test: Neovascularization incidence test using laser-induced choroidal neovascularization models in rats; assay type: in vivo; conditions: 168 h; Brown Norway rat, krypton laser photocoagulation; 30 mg/kg/day oral once a day for 7 days; fluorescein fundus photography on day 7; average of 3 to 4 rats and 6 to 8 eyes; read-out: Ratio of neovascularization incidence rate (% of Control)
Description: A neovascularization incidence test of the compounds of the present invention was performed using a choroidal neovascularization model in rats, which is one of the widely-used methods of evaluating in vivo choroidal neovascularization inhibitory effects of drugs.
As one of the widely-used methods of evaluating choroidal neovascularization inhibitory effects of drugs, a neovascularization incidence test using choroidal neovascularization models in rats was reported in Graefe's Arch. Cli. Exp. Ophthalmol., 235, 313-319 (1997). According to the method described in the above-mentioned document, a neovascularization incidence test of the compounds of the present invention was performed, the ratio of neovascularization incidence rate of each of the compounds of the present invention administration groups to a neovascularization incidence rate of vehicle administration group (control group) was calculated, and the choroidal neovascularization inhibitory effect of each of the compounds of the present invention was evaluated using the obtained ratio as an index.
A 1% aqueous methyl cellulose solution was added to each test compound to suspend it, whereby a 6 mg/10 mL test compound suspension was prepared.
• 1) A 7:1 mixed solution (1 mL/kg) of a 5% ketamine hydrochloride injection and a 2% xylazine hydrochloride injection was administered intramuscularly to rats (Brown Norway male rat, 8 weeks of age, weight: 200 to 250 g) to anesthetize them systemically. • 2) A tropicamide-phenylephrine hydrochloride ophthalmic solution (trade name: Mydrin-P) was instilled into eyes to cause mydriasis, and then photocoagulation was performed in a Bruch's membrane of each rat using a krypton laser photocoagulation apparatus.
The laser photocoagulation was performed at 8 spots per eye sparsely avoiding thick retinal vessels in a posterior section of ocular fundus and focusing on the deep layer of the retina. Photocoagulation conditions were adjusted to 100 μm of spot size, 100 mW of intensity and 0.1 sec. dulation. • 3) After the photocoagulation, the ocular fundus was photographed to confirm photocoagulation (laser irradiation) sites. (Method of Test and Method of Measurement) • 1) From the laser photocoagulation day (i.e. on day 0) to day 6, the test compound suspension (30 mg/kg/day) was administered orally once a day for 7 consecutive days. • 2) As the vehicle administration group (control group), a test was performed in the same manner as in 1) except that the 1% aqueous methyl cellulose solution was used instead of the test compound suspension, and the result was used as a control. (Method of Evaluation) • 1) On day 7 after the photocoagulation, 0.1 mL of a 10% aqueous fluorescein solution was injected into a tail vein of the rat, and fluorescein fundus photography was performed. • 2) Next, in the fluorescein fundus photography, a spot where fluorescence leak was not observed was judged as negative, and a spot where fluorescence leak was observed was judged as positive. Photocoagulation sites where a little fluorescence leak was observed were judged as positive when two such sites are present. • 3) The neovascularization incidence rate was calculated according to the calculation equation 1. The ratio of the neovascularization incidence rate of the test compound administration group to that of the vehicle administration group was calculated according to the calculation equation 2 using the neovascularization incidence rate of the respective administration groups. […]

B16 cells = test: Tumor growth inhibitory action test using cancer models in mice (B16 cells); assay type: in vivo; conditions: C57BL/6N mouse, B16 cells intradermal; 100 mg/kg/day oral once a day, day 0 to day 10; average of 9 mice per group; read-out: Tumor tissue weight inhibition rate (%)
Description: A tumor growth inhibitory action test of the compounds of the present invention was performed using a tumor growth model in mice, which is one of the widely-used methods of evaluating in vivo anticancer effects of drugs.
As one of the widely-used methods of evaluating anticancer effects of drugs, a tumor growth inhibitory action test using cancer models in mice has been reported in Cancer Res., 59, 5209-5218 (1999). According to the method described in the above-mentioned document, a tumor growth inhibitory action test of the compounds of the present invention was performed, the tumor tissue weight inhibition rate was calculated, and the anticancer effect of each of the compounds of the present invention was evaluated using the obtained rate as an index.
A 1% aqueous methyl cellulose solution was added to each test compound to suspend it with a sonicator, whereby a 10 mg/mL test compound suspension was prepared.
Physiological saline was added to B16 cells, whereby a 3.3×10^7 cells/mL B16 cell suspension was prepared.
• 1) The back of each mouse (female, 6 weeks of age, C57BL/6N mouse) was depilated using a depilatory under Nembutal anesthesia. • 2) Several days after the depilation, the B16 cell suspension (300 μL) was injected intradermally into the back of the mouse under Nembutal anesthesia. • 3) From the B16 cell injection day (i.e. on day 0) to day 10, the test compound suspension (100 mg/kg/day) was orally administered once a day consecutively. • 4) Ten days after the injection of the cells, the mouse was euthanized with CO2 gas. • 5) A tumor tissue was enucleated from the mouse, and the weight of the tumor tissue was measured with an electronic balance. • 6) A test was performed in the same manner as in 1) to 5) except that the 1% aqueous methyl cellulose solution was used instead of the test compound suspension, and the result was used as a control. (Calculation of Tumor Tissue Weight Inhibition Rate)
A tumor tissue weight inhibition rate (the average of 9 mice per group), which was used as an index of anticancer effect, was calculated according to the following calculation equation. Tumor tissue weight inhibition rate (%)=100−(Mx/Mo)×100 (Calculation Equation) Mo: Tumor tissue weight of control group Mx: Tumor tissue weight of test compound solution administration group (Test Results and Discussion)

[2] = tested on: adjuvant arthritis models in rats; test: Paw edema inhibitory action test using adjuvant arthritis models in rats; assay type: in vivo; conditions: 504 h; Lewis rat, adjuvant-untreated (secondary inflammation) paw, day 21; 10 mg/kg/day oral once a day, day 0 to day 20; average of 8 rats per group; read-out: Paw edema inhibition rate (%)
Description: A paw edema inhibitory action test of the compounds of the present invention was performed using an adjuvant arthritis model in rats, which is one of the widely-used methods of evaluating in vivo antiarthritis effects of drugs.
As one of the widely-used methods of evaluating antiarthritic effects of drugs, a paw edema inhibitory action test using adjuvant arthritis models in rats is known. Accordingly, a paw edema inhibitory action test of the compounds of the present invention was performed, the paw edema inhibition rate was calculated, and the antiarthritic effect of each of the compounds of the present invention was evaluated using the obtained rate as an index.
A 1% aqueous methyl cellulose solution was added to each test compound to suspend it, whereby a 2 mg/mL test compound suspension was prepared.
Liquid paraffin was added to Mycobacterium butyricum to suspend it, whereby 6 mg/mL adjuvant was prepared.
• 1) The adjuvant (0.1 mL) was injected subcutaneously into a left hind paw sole of each rat (male, 9 weeks of age, Lewis rat) to induce arthritis. • 2) From the adjuvant injection day (i.e. on day 0) to day 20, the test compound suspension (10 mg/kg/day) was orally administered once a day consecutively. • 3) On the adjuvant injection day, day 1, day 4, day 7, day 11, day 14, day 18 and day 21, each paw volume of both hind paws was measured with a plethysmometer. • 4) A test was performed in the same manner as in 1) to 3) except that the 1% aqueous methyl cellulose solution was used instead of the test compound suspension, and the result was used as a control. (Method of Evaluation)
Each paw edema inhibition rate of paw edema in an adjuvant-untreated paw (secondary inflammation paw) in each test compound administration group to paw edema in a secondary inflammation paw in a control group was calculated, and the antiarthritic effect of each of the compounds of the present invention was evaluated using the obtained rate as an index.
The paw edema rate was calculated according to the following calculation equation 1, and then the paw edema inhibition rate (the average of 8 rats per group), which was used as an index of the antiarthritic effect, was calculated according to the calculation equation 2. Paw edema rate (%)=(Paw volume after adjuvant treatment/paw volume before adjuvant treatment)×100 (Calculation Equation 1) Paw edema inhibition rate (%)=100−{(Sx−100)/(So−100)}×100 (Calculation Equation 2) So: Paw edema rate of control group Sx: Paw edema rate of test compound suspension administration group (Test Results and Discussion)

[3] = tested on: HUVEC (normal human umbilical vein endothelial cells); test: VEGF-induced HUVEC proliferation: cell proliferation inhibitory action test; assay type: cell-based; conditions: 72 h, 5 μL of 20 μg/mL test compound solution per well, WST-8 absorbance at 450 nm three days after VEGF addition, read-out: Cell proliferation inhibition rate (%);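 note: each well holds 100 µL cell suspension before compound addition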
Description: A cell proliferation inhibitory action test of the compounds of the present invention was performed using a VEGF-induced HUVEC proliferation evaluation system (HUVEC stands for normal human umbilical vein endothelial cells), which is one of the widely-used methods of evaluating in vitro angiogenesis inhibitory effects of drugs. As one of the widely-used methods of evaluating angiogenesis inhibitory effects of drugs, a cell proliferation inhibitory action test using a VEGF-induced HUVEC proliferation reaction evaluation system has been reported in Cancer Res., 59, 99-106 (1999). According to the method described in the above-mentioned document, a cell proliferation inhibitory action test of the compounds of the present invention was performed, the cell proliferation inhibition rate was calculated, and the angiogenesis inhibitory effect of each of the compounds of the present invention was evaluated using the obtained rate as an index. Each test compound was dissolved in dimethyl sulfoxide (hereinafter abbreviated as DMSO), and the obtained solution was diluted with a commercially available phosphoric acid buffer solution (hereinafter abbreviated as PBS), whereby a 20 μg/mL test compound solution was prepared. HUVEC was suspended in a 0.5% fetal bovine serum (hereinafter abbreviated as FBS)-containing F12K medium, whereby a 2×10^4 cells/mL HUVEC suspension was prepared. VEGF was dissolved in 0.1% bovine serum albumin-containing PBS, and the obtained solution was diluted with the 0.5% FBS-containing F12K medium, whereby a 400 ng/mL VEGF solution was prepared. • 1) The HUVEC suspension was inoculated in an amount of 100 μL into each well of a 96-well plate coated with type I collagen (2×10^3 cells per well). • 2) One day after the inoculation, the test compound solution was added in an amount of 5 μL per well. • 3) One hour after the addition of the test compound solution, the VEGF solution was added in an amount of 5 μL per well. • 4) Three days after the addition of the VEGF solution, WST-8 assay kit (Dojin Chemical Co., Ltd.) was added in an amount of 10 μL per well. • 5) After 3 hours, the above-mentioned plate was attached to an absorptiometer (Multilabel Counter ARVO), and an absorbance at 450 nm of each well suspension (hereinafter referred to as test compound suspension) was measured. • 6) A test was carried out in the same manner as in the above 1) to 5) except that 1.0% DMSO was used instead of the test compound solution. The result was used as a control. Incubation was carried out under conditions of 37° C., 5% carbon dioxide and […] in an incubator throughout the above-mentioned test steps. The cell proliferation inhibition rate (%), which was used as an index of an angiogenesis inhibitory effect, was calculated according to the following calculation equation. Cell proliferation inhibition rate (%)=100−{(Absorbance of test compound suspension−A)/(absorbance of control−A)}×100 (Calculation Equation) A: Absorbance of only cell suspension (cell+medium) (Test Results and Discussion)

Structure (SMILES)	response vs control in vivo at 30 mg/kg/day [1] [%]	inhibition in vivo at 100 mg/kg/day (B16 cells) [%]	inhibition in vivo at 10 mg/kg/day [2] [%]	inhibition at 20 µg/mL (stock) [3] [%]
CC(=O)Nc1cc(CSc2ncccc2C(=O)Nc2cccc(C)c2)ccn1 [Compound 4-20, 2-(2-Acetylaminopyridin-4-ylmethylthio)-N-(3-methylphenyl)pyridine-3-carboxamide]	22	84		
CNc1cc(CSc2ncccc2C(=O)Nc2cc(C)cc(C)c2)ccn1 [Compound 3-6, N-(3,5-Dimethylphenyl)-2-(2-methylaminopyridin-4-ylmethylthio)pyridine-3-carboxamide monohydrochloride]		71	33	100
CC(=O)N1CCN(c2cc(CSc3ncccc3C(=O)Nc3cc(C)cc(C)c3)ccn2)CC1 [Compound 1-6, 2-[2-(4-Acetylpiperazin-1-yl)pyridin-4-ylmethylthio]-N-(3,5-dimethylphenyl)pyridine-3-carboxamide]	38	42		100
